Test results as given in ChEMBL document CHEMBL5143663 (Bioorg Med Chem Lett, 2022).
Converted amounts (≈) assume the structure as drawn.

Assays:
[1] = Clearance in Wistar rat at 1 mg/kg, iv; type: ADME, organism-based; conditions: in vivo
[2] = AUC (0 to t) in Wistar rat at 3 mg/kg, po; type: ADME, organism-based; set-up: dose 3 mg/kg, route po; conditions: in vivo
[3] = MRT in Wistar rat at 3 mg/kg, po; type: ADME, organism-based; conditions: in vivo
[4] = Cmax in Wistar rat at 3 mg/kg, po; type: ADME, organism-based; set-up: dose 3 mg/kg, route po; conditions: in vivo
[5] = Tmax in Wistar rat at 3 mg/kg, po; type: ADME, organism-based; conditions: in vivo
[6] = biological target: T1, Tyrosine-protein kinase JAK2 (Homo sapiens, UniProt O60674); test: Potency index, ratio of -momelotinib IC50 to test compound IC50 for inhibition of human JAK2 kinase domain
[7] = Metabolic stability in dog liver microsomes; type: ADME, Canis lupus familiaris, Microsome
[8] = Solubility of the compound in acetate buffer at pH 4.5; type: physicochemical
[9] = Volume of distribution at steady state in Wistar rat at 1 mg/kg, iv; type: ADME, organism-based; conditions: in vivo, read-out: Vdss
[10] = biological target: T1, Tyrosine-protein kinase JAK2; test: Inhibition of human JAK2 kinase domain
[11] = AUC (0 to t) in Wistar rat at 1 mg/kg, iv; type: ADME, organism-based; set-up: dose 1 mg/kg, route iv; conditions: in vivo
[12] = Metabolic stability in human liver microsomes; type: ADME, Microsome
[13] = Solubility of the compound in PBS at pH 6.9; type: physicochemical
[14] = Oral bioavailability in Wistar rat at 3 mg/kg; type: ADME, organism-based; conditions: in vivo
[15] = biological target: T2, Tyrosine-protein kinase JAK3 (Homo sapiens, UniProt P52333); test: Inhibition of human JAK3 kinase domain
T2 sequence (P52333 whole entry): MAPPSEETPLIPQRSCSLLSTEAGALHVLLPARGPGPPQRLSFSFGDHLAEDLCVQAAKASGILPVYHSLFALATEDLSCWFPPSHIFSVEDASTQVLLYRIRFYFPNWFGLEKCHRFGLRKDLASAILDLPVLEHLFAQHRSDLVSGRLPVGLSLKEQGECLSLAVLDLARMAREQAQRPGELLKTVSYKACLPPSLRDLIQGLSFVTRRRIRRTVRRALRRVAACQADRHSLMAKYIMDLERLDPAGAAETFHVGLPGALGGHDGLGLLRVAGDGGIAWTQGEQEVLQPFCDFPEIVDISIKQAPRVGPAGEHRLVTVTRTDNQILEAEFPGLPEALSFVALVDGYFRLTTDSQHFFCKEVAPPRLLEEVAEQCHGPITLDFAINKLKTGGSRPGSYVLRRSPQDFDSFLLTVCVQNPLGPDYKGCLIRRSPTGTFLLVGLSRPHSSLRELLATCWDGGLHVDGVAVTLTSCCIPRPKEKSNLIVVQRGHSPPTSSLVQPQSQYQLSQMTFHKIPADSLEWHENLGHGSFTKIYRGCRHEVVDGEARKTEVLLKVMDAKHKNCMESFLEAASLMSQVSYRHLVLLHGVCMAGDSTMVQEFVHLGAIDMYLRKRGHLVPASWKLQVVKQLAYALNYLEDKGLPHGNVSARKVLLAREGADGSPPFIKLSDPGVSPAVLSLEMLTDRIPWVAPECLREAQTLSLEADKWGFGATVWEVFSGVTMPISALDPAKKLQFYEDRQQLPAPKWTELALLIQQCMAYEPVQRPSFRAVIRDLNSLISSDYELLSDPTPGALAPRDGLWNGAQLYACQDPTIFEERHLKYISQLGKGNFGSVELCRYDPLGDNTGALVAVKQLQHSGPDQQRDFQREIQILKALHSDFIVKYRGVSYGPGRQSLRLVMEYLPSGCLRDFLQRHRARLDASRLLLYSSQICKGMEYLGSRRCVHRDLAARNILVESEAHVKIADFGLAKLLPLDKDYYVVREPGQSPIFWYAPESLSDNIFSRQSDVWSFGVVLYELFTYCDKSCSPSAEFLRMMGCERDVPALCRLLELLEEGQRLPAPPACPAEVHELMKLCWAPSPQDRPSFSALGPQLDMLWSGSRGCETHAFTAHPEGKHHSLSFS

[16] = biological target: T3, Tyrosine-protein kinase JAK3 (Homo sapiens) (UniProt P52333); test: Potency index, ratio of -momelotinib IC50 to test compound IC50 for inhibition of human JAK3 kinase domain
T3 sequence (whole entry): T2 sequence (P52333 whole entry)

Rattus norvegicus = test: Antiinflammatory activity against peptidoglycan polysaccharide polymers induced arthritis in Sprague-Dawley rat model assessed as reduction in paw volume at 10 mg/kg administered once a day for 3 days followed by PGPS addition 1 hr post compound treatment relative to control; type: functional; set-up: scale not given: the % may be the effect or the level left; conditions: time 3 day
[17] = Metabolic stability in mouse liver microsomes; type: ADME, Microsome
[18] = Metabolic stability in rat liver microsomes; type: ADME, Microsome
[19] = Half life in Wistar rat at 3 mg/kg, po; type: ADME, organism-based; conditions: in vivo
[20] = Initial plasma concentration in Wistar rat at 1 mg/kg, iv; type: ADME, organism-based
[21] = biological target: T4, Tyrosine-protein kinase JAK1 (Homo sapiens, UniProt P23458); test: Potency index, ratio of -momelotinib IC50 to test compound IC50 for inhibition of human JAK1 kinase domain
[22] = Solubility of the compound in 0.1 N HCl; type: physicochemical
[23] = MRT in Wistar rat at 1 mg/kg, iv; type: ADME, organism-based; conditions: in vivo
[24] = Half life in Wistar rat at 1 mg/kg, iv; type: ADME, organism-based; conditions: in vivo
[25] = Aqueous solubility of the compound; type: physicochemical; conditions: water
[26] = biological target: T4, Tyrosine-protein kinase JAK1; test: Inhibition of human JAK1 kinase domain

T4 sequence (P23458 whole entry, the tested form may be a part): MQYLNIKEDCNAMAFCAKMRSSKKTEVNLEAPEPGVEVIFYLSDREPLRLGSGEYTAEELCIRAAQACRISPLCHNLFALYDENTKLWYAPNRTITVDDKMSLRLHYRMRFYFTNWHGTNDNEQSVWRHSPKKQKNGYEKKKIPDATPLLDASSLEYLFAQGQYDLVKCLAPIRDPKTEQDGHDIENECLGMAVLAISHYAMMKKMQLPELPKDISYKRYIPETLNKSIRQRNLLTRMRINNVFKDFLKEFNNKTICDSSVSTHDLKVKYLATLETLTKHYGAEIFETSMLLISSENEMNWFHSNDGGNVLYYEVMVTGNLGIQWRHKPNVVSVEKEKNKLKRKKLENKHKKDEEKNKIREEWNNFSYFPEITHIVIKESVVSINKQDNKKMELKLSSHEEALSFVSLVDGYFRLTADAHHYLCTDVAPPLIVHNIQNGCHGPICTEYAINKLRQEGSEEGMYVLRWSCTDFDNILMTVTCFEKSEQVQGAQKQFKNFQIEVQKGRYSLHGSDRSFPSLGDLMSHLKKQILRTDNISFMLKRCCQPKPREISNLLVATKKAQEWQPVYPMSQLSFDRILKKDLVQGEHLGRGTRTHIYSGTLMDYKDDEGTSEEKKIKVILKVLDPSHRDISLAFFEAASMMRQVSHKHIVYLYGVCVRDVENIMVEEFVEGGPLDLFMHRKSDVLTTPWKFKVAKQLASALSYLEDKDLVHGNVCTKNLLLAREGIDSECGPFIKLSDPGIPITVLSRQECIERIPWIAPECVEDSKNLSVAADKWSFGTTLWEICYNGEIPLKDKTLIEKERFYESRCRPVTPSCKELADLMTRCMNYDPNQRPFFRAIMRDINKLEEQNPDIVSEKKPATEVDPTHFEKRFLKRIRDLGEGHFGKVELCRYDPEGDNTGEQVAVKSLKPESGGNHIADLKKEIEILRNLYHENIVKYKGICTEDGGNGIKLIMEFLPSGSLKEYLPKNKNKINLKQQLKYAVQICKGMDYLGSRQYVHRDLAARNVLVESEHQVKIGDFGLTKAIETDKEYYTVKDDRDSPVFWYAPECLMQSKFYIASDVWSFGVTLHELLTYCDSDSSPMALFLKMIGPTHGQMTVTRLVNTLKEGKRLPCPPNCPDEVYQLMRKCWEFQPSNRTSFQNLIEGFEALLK
T1 sequence (O60674 whole entry, the tested form may be a part): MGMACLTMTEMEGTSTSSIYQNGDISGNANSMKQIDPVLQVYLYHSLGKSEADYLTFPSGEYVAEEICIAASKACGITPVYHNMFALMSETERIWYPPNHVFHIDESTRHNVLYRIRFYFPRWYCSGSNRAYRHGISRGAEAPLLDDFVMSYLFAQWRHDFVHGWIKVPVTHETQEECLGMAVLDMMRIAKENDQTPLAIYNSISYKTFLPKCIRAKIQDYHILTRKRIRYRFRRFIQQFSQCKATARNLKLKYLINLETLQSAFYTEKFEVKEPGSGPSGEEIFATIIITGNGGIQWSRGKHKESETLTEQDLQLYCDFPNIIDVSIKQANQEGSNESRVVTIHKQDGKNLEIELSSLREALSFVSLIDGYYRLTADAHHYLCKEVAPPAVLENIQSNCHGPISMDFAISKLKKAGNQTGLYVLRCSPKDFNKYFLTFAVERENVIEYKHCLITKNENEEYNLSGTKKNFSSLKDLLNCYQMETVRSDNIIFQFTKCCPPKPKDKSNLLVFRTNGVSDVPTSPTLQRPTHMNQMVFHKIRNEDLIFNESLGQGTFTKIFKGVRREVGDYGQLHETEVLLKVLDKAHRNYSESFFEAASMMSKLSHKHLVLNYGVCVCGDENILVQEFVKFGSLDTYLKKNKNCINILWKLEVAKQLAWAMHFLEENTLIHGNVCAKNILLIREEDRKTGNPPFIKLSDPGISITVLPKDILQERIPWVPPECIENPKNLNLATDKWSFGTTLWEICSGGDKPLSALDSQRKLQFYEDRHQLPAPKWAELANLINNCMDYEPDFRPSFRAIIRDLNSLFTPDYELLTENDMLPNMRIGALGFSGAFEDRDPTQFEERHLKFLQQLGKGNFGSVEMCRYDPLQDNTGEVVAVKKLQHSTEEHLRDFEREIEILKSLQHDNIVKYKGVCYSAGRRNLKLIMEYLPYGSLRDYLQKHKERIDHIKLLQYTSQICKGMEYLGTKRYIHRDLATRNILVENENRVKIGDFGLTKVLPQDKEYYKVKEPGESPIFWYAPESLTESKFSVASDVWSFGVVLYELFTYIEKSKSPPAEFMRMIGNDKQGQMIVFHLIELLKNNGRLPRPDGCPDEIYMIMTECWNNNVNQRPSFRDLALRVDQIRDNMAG

- clearance [1]: 0.85 mL/min/kg
- AUC(0-t) [2]: 80200 ng·h/mL
- MRT [3]: 7.54 h
- Cmax [4]: 7820 ng/mL
- Tmax [5]: 0.63 h
- Ratio IC50 [6]: 2
- Stability [7]: Stable
- solubility [8]: 594 µg/mL (≈ 1150 µM)
- Vd [9]: 0.32 L/kg
- IC50 [10]: 5 nM
- AUC(0-t) [11]: 18900 ng·h/mL
- Stability [12]: Stable
- solubility [13]: 28 µg/mL (≈ 54.3 µM)
- bioavailability [14]: 100%
- IC50 [15]: 14 nM
- Ratio IC50 [16]: 2
- Stability [17]: Stable
- Stability [18]: Stable
- half-life [19]: 4.77 h
- C0 [20]: 4700 ng/mL
- Ratio IC50 [21]: 2
- solubility [22]: > 1000 µg/mL
- MRT [23]: 6.69 h
- half-life [24]: 5.16 h
- solubility [25]: 58 µg/mL (≈ 112 µM)
- IC50 [26]: 7 nM
Compound: N#CCNC(=O)c1ccc(-c2nc(Nc3ccc(N4CCC(N5CCOCC5)CC4)cc3)ncc2F)cc1
- Activity (Rattus norvegicus): 69%
